Among the data in ChEMBL document CHEMBL1142656, “Identification of 3-(acylamino)azepan-2-ones as stable broad-spectrum chemokine inhibitors resistant to metabolism in vivo” (2005) are EC50 values, retold here.

Structures are written as SMILES. Some results are limits rather than exact numbers.

The test deals with THP-1. Description: In vitro activity to inhibit MCP-1-induced leukocyte migration of THP-1 cells. The class given is functional. The note with it: Homo sapiens, read-out: ED50 (the source's name).
Regarding `C=CCCCCCCCCC(=O)N[C@H]1CCCNC1=O`, the EC50 was 100 nM. The value for `C=CCCCCCCCCC(=O)N[C@H]1CCC(=O)N(C)C1=O` was 33 nM. With `C#CCCCCCCCCC(=O)N[C@H]1CCCCNC1=O` the figure was 10 nM; with `CCCCCCCCCCC(=O)N[C@H]1CCCCNC1=O`, 50 nM; with `CCCCCCCCCCC(=O)N[C@H](CCC(=O)O)C(N)=O`, 40000 nM. The value for `CCCCCC/C=C\CCCCCCCC(=O)N[C@H]1CCCCNC1=O` was 3 nM; that for `C=CCCCCCCCCC(=O)N[C@@H]1CCC(=O)NC1=O` was 250 nM. For the compound `CCCCCCCCCCC(=O)N[C@@H](CCC(=O)O)C(=O)O`, the EC50 amounted to 10000 nM. The value for `CCCCCCCCCCCCCCCC(=O)N[C@H]1CCCCNC1=O` was 3 nM.

For the compound `C=CCCCCCCCCC(=O)N[C@H]1CCCCNC1=O`, the EC50 turned out to be 40 nM. On to `C=CCCCCCCCCC(=O)N[C@H]1CCNC1=O`, for which the EC50 was 245 nM.

Turning to `CCCCCCCCCCCC(=O)N[C@H]1CCCCNC1=O`, the EC50 worked out at 15 nM.

In the case of `CCCCCCCCCCC(=O)N[C@@H](CCC(N)=O)C(=O)O`, the EC50 was 30000 nM. The value for `CCCCCCCCCCCCCC(=O)N[C@H]1CCCCNC1=O` was 5 nM. The value for `C=CCCCCCCCCC(=O)N[C@H]1CCC(=O)NC1=O` was 5 nM. The value for `CCCCCCCC/C=C\CCCCCCCC(=O)N[C@H]1CCCCNC1=O` was 3 nM; that for `CCCCCCCC/C=C\CCCCCCCC(=O)N[C@@H]1CCCCNC1=O` was 30 nM; that for `CCCCCCCCCCC(=O)N[C@H](CCC(N)=O)C(=O)O` was 50000 nM.

In the case of `CCCCCCCCCCC(=O)N[C@H](CCC(=O)O)C(=O)O`, the EC50 turned out to be 25000 nM.

With `CCCCCCCCCCC(=O)N[C@@H](CCC(=O)O)C(N)=O`, the EC50 stood at 15000 nM. `CCCCCCCCCCCCCCCC(=O)N[C@@H]1CCCCNC1=O`: the EC50 is 40 nM. The value for `CCCCCCCCCCC(=O)NC1CCC(=O)NC1=O` (single isomer, unassigned) was 10 nM; that for `N[C@@H](CCCC(=O)O)C(=O)O` [(S)-2-AMINOADIPIC ACID] was above 100000 nM.

With `N[C@H](CCC(=O)O)C(=O)O` [D-GLUTAMATE], the EC50 was above 100000 nM.
